According to US8598118B2, “Hepatocyte growth factor mimics as therapeutic agents” (Washington State University, priority 2011, dated 2013):
Structures can show the parent of a compound that is named as a salt. Where a SMILES comes first, the peptide text is derived from it. [ ]: non-standard residue; d: D form. dNle = CCCC[C@@H](N)C(=O)O; Nle = CCCC[C@H](N)C(=O)O; Ahx = NCCCCCC(=O)O

Legend:
Male Sprague-Dawley rats = assay: Morris water maze with the HGF antagonist Hinge (Example 2)
Procedure: Male Sprague-Dawley rats (Taconic derived) weighing 390-450 g were maintained with free access to water and food (Harland Tekland F6 rodent diet, Madison, Wis.) except the night prior to surgery when food was removed. Each animal was anesthetized with Ketamine hydrochloride plus Xylazine (100 and 2 mg/kg im. respectively; Phoenix Scientific; St. Joseph, Mo., and Moby; Shawnee, Kans.). […] The guide cannula measured 2.5 cm in overall length and was prepared with a heat bulge placed 2.5 mm from its beveled tip, thus acting as a stop to control the depth of penetration. Once in position, the cannula was secured to the skull with two stainless-steel screws and dental cement. […]
A black circular platform (diameter: 12 cm; height: 24 cm) was placed 30 cm from the wall and submerged 2 cm below the water surface. […] The swimming path of the animals was recorded using a computerized video tracking system (Chromotrack; San Diego Instruments, CA). […] Swim speed was determined from these values. […]
Morris water maze data set mean latencies to find the platform during each daily block of five trials were calculated for each animal for each day of acquisition. […] Significant effects were analyzed by Newman-Keuls post-hoc test with a level of significance set at P<0.05.

Met = assay: Inhibition of HGF-dependent Met phosphorylation in HEK293 cells; format: cell-based, human; details: 10 min
Procedure: HEK293 cells were seeded in 6 well tissue culture plates and grown to 95% confluency in DMEM containing 10% FBS. The cells were serum deprived for 24 h prior to the treatment to reduce the basal levels of phospho-Met. Following serum starvation, cocktails comprised of vehicle and HGF with/without 6-AH analogs were prepared and pre-incubated for 30 min at room temperature. The cocktail was then added to the cells for 10 min to stimulate the Met receptor and downstream proteins. Cells were harvested using RIPA lysis buffer (Millipore; Billerica, Mass.) fortified with phosphatase inhibitor cocktails 1 and 2 (Sigma-Aldrich; St. Louis, Mo.). The lysate was clarified by centrifugation at 15,000 nx g for 15 min, protein concentrations were determined using the BCA total protein assay (Pierce), and then appropriate volumes of the lysates were diluted with 2× reducing Laemmli buffer and heated for ten min at 95° C. Samples containing identical amounts of protein were resolved using SDS-PAGE (Criterion, BioRad Laboratories), transferred to nitrocellulose, and blocked in Tris-buffered saline (TBS) containing 5% milk for 1 h at room temperature. The phospho-Met antibody were added to the blocking buffer at a final concentration of 1:1000 and incubated at 4° C. overnight with gentle agitation. The membranes were then washed several times with water and TBS ([…], 0.05% Tween-20), a 1:5000 dilution of horseradish-peroxidase conjugated goat anti-rabbit antiserum was added, and the membranes further incubated for 1 h at room temperature. Proteins were visualized using the Supersignal West Pico Chemiluminescent Substrate system (Pierce, Fenton, Mo.) and molecular weights determined by comparison to protein ladders (BenchMark, Invitrogen, and Kaleidoscope, BioRad). Film images were digitized and analyzed using a UVP phosphoimager.

MDCK cells [1] = assay: HGF-dependent MDCK cell proliferation (MTT); format: cell-based, canine; details: analog 10^−10M, 4 days
Procedure: 5000 MDCK cells were seeded into the wells of a 96 well plates in 10% FBS DMEM. To induce cellular quiescence, the cells were serum deprived for 24 h prior to initiating the treatments. Following serum starvation, 10 ng/ml HGF alone and with various concentrations of 6-AH analogs or PBS vehicle were added to the media. The cells were allowed to grow under these conditions for 4 days with a daily addition of 6-AH analogs. On the fourth day, 1 mg/ml of […] (MTT, Sigma-Aldrich) prepared in PBS was added to the cells and incubated for 4 h. Dimethyl sulfoxide diluted in a 0.01M glycine buffer was added to solubilize the cell membranes and the absorbance of reduced MTT in the buffer was quantitated at 590 nm using a plate reader (Biotek Synergy 2, Winooski, Vt.). HGF-dependent proliferation was determined by subtracting the basal proliferation (in the absence of HGF) from total proliferation rates in groups containing HGF.

MDCK cells [2] = assay: Inhibition of HGF-dependent scattering in MDCK cells; format: cell-based, canine; details: for inhibition of HGF-dependent MDCK cell scattering: 20 ng/ml HGF, 48 h
Procedure: (§1) MDCK cells were grown to 100% confluency on the coverslips in six-well plates and washed twice with PBS. The confluent coverslips were then aseptically transferred to new six well plates containing 900 μl serum free DMEM. Norleual, Hinge peptide, and/or HGF (20 ng/ml) were added to appropriate wells. Control wells received PBS vehicle. Plates were incubated at 37° C. with 5% CO2 for 48 hours. Media was removed and cells were fixed with methanol. Cells were stained with Diff-Quik Wright-Giemsa (Dade-Behring, Newark, Del.) and digital images were taken. Coverslips were removed with forceps and more digital images were captured. Pixel quantification of images was achieved using Image J and statistics were performed using Prism 5 and InStat v.3.05.
as §1, with “h.” for “hours.”, “v.3.05 (GraphPad; San Diego, Calif.).” for “v.3.05.”

hippocampal neurons [3] = assay: Spinogenesis in mRFP-β-actin transfected dissociated hippocampal neurons; format: cell-based, rat
Procedure: (§2) Hippocampal neurons (2×10^5 cells per square cm) were cultured from P1 Sprague Dawley rats on plates coated with poly-L-lysine from Sigma (St. Louis, Mo.; molecular weight 300,000). Hippocampal neurons were maintained in Neurobasal A media from Invitrogen (Carlsbad, Calif.) supplemented with B27 from Invitrogen, 0.5 mM L-glutamine, and […] cytosine-D-arabinofuranoside from Sigma added at 2 days in vitro. Hippocampal neurons were then cultured a further 3-7 days, at which time they were either transfected or treated with various pharmacological reagents as described in (Wayman, Davare et al. 2008).
(§3) Neurons were transfected with mRFP-β-actin on day in vitro 6 (DIV6) using LipofectAMINE™ 2000 (Invitrogen) according to the manufacturer's protocol. This protocol yielded the desired 3-5% transfection efficiency thus enabling the visualization of individual neurons. Higher efficiencies obscured the dendritic arbor of individual neurons. Expression of fluorescently tagged actin allowed clear visualization of dendritic spines, as dendritic spines are enriched in actin. On DIV7 the cells were treated with vehicle (H20) or peptides (as described in the text) added to media. On DIV 12 the neurons were fixed (4% paraformaldehyde, 3% sucrose, 60 mM PIPES, 25 mM HEPES, 5 mM EGTA, 1 mM MgCl2, pH 7.4) for 20 min at room temperature and mounted. Slides were dried for at least 20 hours at 4° C. and fluorescent images were obtained with Slidebook 4.2 Digital Microscopy Software driving an Olympus IX81 inverted confocal microscope with a 60× oil immersion lens, NA 1.4 and resolution 0.280 μm Dendritic spine density was measured on primary and secondary dendrites at a distance of at least 150 μm from the soma. Five 50 μm long segments of dendrite from at least 10 neurons per data point were analyzed for each data point reported. Each experiment was repeated at least three times using independent culture preparations. Dendrite length was determined using the National Institutes of Health's Image J 1.41o program (NIH, Bethesda, Md.) and the neurite tracing program Neuron J (Meijering, Jacob et al. 2004) Spines were manually counted.
as §2, with “centimeter)” for “cm)”, “P1-2” for “P1”, “the text or figure legends.” for “(Wayman, Davare et al. 2008).”

hippocampal neurons [4] = assay: Whole-cell recordings of AMPA-mediated mEPSCs; format: cell-based, rat
CA1 hippocampal neurons = assay: Spinogenesis in organotypic hippocampal slice cultures; format: cell-based, rat; details: 10^−12 M, 2 days, organotypic slices
Procedure: (§4) Hippocampi from P4 Sprague Dawley rats were cultured as previously described (Wayman, Impey et al. 2006). Briefly, 400 μm slices were cultured on (Milipore, Billerica, Mass.) for 3 days after which they were biolistically transfected with tomato fluorescent protein (TFP) using a Helios Gen Gun (BioRad, Hercules, Calif.), according to the manufacturer's protocol, to visualize dendritic arbors. Following a 24 hour recovery period slices were stimulated with vehicle (H2O), 1 pM Nle1-AngIV or Dihexa for 2 days. Slices were fixed and mounted. Hippocampal CA1 neuronal processes were imaged and measured as described above.
as §4, with “Gene” for “Gen”, “with” for “with vehicle (H2O),”

c-Met receptor = molecular target: T1, c-Met receptor (Rattus norvegicus, UniProt P97523); assay: Effect of c-Met knock-down (shMet) on spinogenesis in hippocampal neurons; format: cell-based; details: neurons transfected with mRFP-β-actin alone; 10^−12 M, 48 hours
T1 construct: Dissociated hippocampal neurons were transfected with mRFP-β-actin and shMet RNA; endogenous in cells; host or cells: dissociated hippocampal neurons from P1-2 Sprague Dawley rats
T1 sequence (P17945 33-495 partner limits assumed): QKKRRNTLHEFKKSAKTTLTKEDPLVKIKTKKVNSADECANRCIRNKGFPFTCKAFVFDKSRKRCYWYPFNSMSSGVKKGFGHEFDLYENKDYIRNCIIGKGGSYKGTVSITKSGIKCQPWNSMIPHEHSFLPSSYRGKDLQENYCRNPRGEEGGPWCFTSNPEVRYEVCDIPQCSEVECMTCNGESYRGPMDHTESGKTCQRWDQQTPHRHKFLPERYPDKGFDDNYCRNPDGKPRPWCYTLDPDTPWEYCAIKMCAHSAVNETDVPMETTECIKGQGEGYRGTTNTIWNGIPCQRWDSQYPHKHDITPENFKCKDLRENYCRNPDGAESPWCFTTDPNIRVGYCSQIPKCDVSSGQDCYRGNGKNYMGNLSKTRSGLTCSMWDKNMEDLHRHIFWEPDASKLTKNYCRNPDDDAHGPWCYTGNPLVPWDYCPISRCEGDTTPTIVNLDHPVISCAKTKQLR
T1 sequence (P17945 496-728 partner limits assumed): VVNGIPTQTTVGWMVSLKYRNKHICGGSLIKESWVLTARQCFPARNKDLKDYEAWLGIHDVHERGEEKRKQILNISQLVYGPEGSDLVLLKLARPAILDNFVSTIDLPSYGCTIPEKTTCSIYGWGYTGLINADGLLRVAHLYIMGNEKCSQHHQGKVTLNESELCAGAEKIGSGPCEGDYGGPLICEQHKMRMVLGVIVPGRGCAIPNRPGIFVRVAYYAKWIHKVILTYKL
T1 sequence (P97523 25-1382): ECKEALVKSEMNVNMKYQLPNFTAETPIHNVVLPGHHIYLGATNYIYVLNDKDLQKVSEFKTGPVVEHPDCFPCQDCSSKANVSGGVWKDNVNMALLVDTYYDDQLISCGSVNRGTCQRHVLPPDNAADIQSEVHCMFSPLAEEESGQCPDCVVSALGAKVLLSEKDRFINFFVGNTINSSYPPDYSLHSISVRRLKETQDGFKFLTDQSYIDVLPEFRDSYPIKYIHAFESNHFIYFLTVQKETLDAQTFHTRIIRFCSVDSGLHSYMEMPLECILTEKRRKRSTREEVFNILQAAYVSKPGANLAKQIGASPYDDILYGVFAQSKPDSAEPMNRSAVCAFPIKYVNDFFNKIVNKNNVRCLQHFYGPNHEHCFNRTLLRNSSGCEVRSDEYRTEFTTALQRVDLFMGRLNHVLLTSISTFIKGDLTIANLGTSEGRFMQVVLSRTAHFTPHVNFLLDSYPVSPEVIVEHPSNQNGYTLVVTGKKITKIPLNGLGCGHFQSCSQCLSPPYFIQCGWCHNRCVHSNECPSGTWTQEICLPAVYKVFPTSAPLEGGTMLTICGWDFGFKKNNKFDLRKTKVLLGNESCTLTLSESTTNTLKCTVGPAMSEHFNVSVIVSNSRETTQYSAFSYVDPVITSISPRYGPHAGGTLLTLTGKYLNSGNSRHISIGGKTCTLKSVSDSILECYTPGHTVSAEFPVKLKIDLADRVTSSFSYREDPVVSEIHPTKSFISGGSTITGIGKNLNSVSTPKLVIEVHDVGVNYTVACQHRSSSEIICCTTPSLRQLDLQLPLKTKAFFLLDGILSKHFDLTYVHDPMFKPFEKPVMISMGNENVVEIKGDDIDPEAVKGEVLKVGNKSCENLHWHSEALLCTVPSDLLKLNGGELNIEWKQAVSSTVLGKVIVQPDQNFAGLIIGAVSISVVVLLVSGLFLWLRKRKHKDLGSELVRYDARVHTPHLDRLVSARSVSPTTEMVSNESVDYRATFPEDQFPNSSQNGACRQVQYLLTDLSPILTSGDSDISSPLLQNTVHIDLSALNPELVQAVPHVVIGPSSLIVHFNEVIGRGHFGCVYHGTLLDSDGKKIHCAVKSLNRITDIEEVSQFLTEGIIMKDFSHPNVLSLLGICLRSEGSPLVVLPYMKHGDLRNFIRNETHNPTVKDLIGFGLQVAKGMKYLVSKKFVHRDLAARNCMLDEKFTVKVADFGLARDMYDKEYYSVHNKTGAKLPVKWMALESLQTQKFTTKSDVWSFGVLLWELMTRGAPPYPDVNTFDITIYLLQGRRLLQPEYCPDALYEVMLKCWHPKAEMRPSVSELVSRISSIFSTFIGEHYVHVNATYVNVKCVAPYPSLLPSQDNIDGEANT
From the text: as §3
A target sequence for c-Met was designed using RNAi central design program (see the website located at cancan.cshl.edu/). […]. The shRNA was transfected into cells using the lipofectamine method described above. Verification of receptor knockdown was done by creating a c-Met-6-Myc tagged gene product using the Gateway cloning system (Invitrogen). […]

CN1[C@@H]2C[C@@H](OC(=O)[C@H](CO)c3ccccc3)C[C@H]1[C@@H]1O[C@@H]12 [scopolamine, scopolamine hydrobromide]
mean latency to find the pedestal, final day of training (day 8) (Male Sprague-Dawley rats; scopolamine icv pretreated rats, agents 300 pmol icv): 84.8 s

CCCC[C@@H](N)C(=O)N[C@@H](Cc1c[nH]c2ccccc12)C(=O)N[C@H](C(=O)NCCCCCC(N)=O)[C@@H](C)CC [D-Nle-Trp-Ile-NH—(CH2)5—CONH2] (H-[dNle]WI[Ahx]-NH2)
inhibition of HGF-dependent Met auto-phosphorylation (Met): intermediate inhibitory activity | inhibition of HGF-dependent MDCK cell proliferation (MDCK cells [1]): inhibitory activity, albeit less than that observed with the most potent analogs | inhibition of HGF-dependent MDCK cell scattering (MDCK cells [2]): different from the HGF alone group but not different from the control group

CCCC[C@H](N)C(=O)N[C@@H](Cc1ccc(O)cc1)C(=O)N[C@H](C(=O)N[C@@H](Cc1c[nH]cn1)C(=O)N1CCC[C@H]1C(=O)N[C@@H](Cc1ccccc1)C(=O)O)[C@@H](C)CC [Nle1-AngIV, reference compound] (H-[Nle]YIHPF-OH; N-terminus and C-terminus assumed)
fold increase in the number of spines (hippocampal neurons [3]; 10^−12 M, 5 day treatment, vs vehicle): greater than 2 fold | fold increase over control mEPSC frequency (hippocampal neurons [4]; 10-12 M, 5 days): 1.7 fold | mean frequency of AMPA-mediated mEPSCs (hippocampal neurons [4]; 10-12 M, 5 days (Example 1)): 5.27 Hz | spines per 50 μm dendrite length, CA1 neurons (CA1 hippocampal neurons): 11 spines per 50 μm dendrite length | mean spine numbers per 50 μm dendrite length (c-Met receptor): 20.0

CCCC[C@@H](N)C(=O)N[C@@H](CCSC)C(=O)N[C@H](C(=O)NCCCCCC(N)=O)[C@@H](C)CC [D-Nle-Met-Ile-NH—(CH2)5—CONH2] (H-[dNle]MI[Ahx]-NH2)
inhibition of HGF-dependent Met auto-phosphorylation (Met): no ability to effect on Met activation | inhibition of HGF-dependent MDCK cell scattering (MDCK cells [2]): not different

DYIRNC (Synthetic hinge peptide) [reference compound]
effect on basal spinogenesis (hippocampal neurons [3]; Hinge alone, wide range of doses): no effect on spinogenesis | inhibition of stimulated spine formation (hippocampal neurons [3]; neurons stimulated with 10 ng/ml HGF, 10^−12 M Nle1-AngIV or 10^−12 M Dihexa): effectively inhibit spine formation | mean frequency of mEPSCs (hippocampal neurons [4]; 10^−12 M, 5 days (Example 2)): 4.51±0.47 | inhibition of scattering of MDCK cells (MDCK cells [2]; Hinge): inhibit scattering | mean latency to find the pedestal, final day of training (day 8) (Male Sprague-Dawley rats; aCSF followed by Hinge (no scopolamine), icv): 46.1 s
